According to ChEMBL document CHEMBL1147334, “Starfish saponins, part 49. New cytotoxic steroidal glycosides from the starfish Fromia monilis” (J Nat Prod, 1993):

test system: Vero; assay: Cytotoxicity against african green monkey Vero cells after 24 hrs measured per 5x10^5 cells by neutral red uptake assay; format: cell-based; settings: chlorocebus sabaeus

Row | Compound | Activity
1 | CO[C@@H]1[C@@H](O)[C@H](O[C@@H]2CO[C@@H](O[C@@H]3CO[C@@H](OCC[C@@H](/C=C/[C@@H](C)[C@H]4[C@@H](O)[C@@H](O)[C@@H]5[C@]4(C)CC[C@@H]4[C@@]6(C)CC[C@H](O)[C@H](O)[C@@H]6[C@@H](O)C[C@]45O)C(C)C)[C@H](O)[C@H]3O)[C@H](O)[C@H]2OC)OC[C@H]1O | 10 µg
2 | CO[C@H]1[C@H](O[C@H]2CC[C@]3(C)C4=CC[C@]5(C)[C@@H]([C@H](C)CC[C@H](O)C(C)C)C[C@@H](O)[C@H]5C4=CC[C@H]3C2)OC[C@@H](O)[C@@H]1O [MONILOSIDE A] | 3 µg
3 | CO[C@H]1[C@H](O[C@H]2CC[C@]3(C)C4=CC[C@]5(C)[C@@H]([C@H](C)CC[C@H](O)C(C)C)C[C@@H](O)[C@H]5C4=CC[C@H]3[C@H]2O)OC[C@@H](O)[C@@H]1O [MONILOSIDE B] | 3 µg
4 | CO[C@H]1[C@H](O[C@H]2CC[C@@]3(C)[C@H]([C@H]2O)[C@H](O)C[C@H]2[C@@H]4[C@H](O)C[C@H]([C@H](C)CC[C@H](O)C(C)C)[C@@]4(C)CC[C@@H]23)OC[C@@H](O)[C@@H]1O [MONILOSIDE C] | 3 µg
5 | CO[C@H]1[C@H](O[C@H]2CC[C@@]3(C)[C@H]([C@H]2O)[C@H](O)C[C@]2(O)[C@@H]3CC[C@]3(C)[C@@H]([C@H](C)CC[C@H](O)C(C)C)C[C@@H](O)[C@H]32)OC[C@@H](O)[C@@H]1O [MONILOSIDE D] | 3 µg
6 | CO[C@@H]1[C@@H](O)[C@H](OCC[C@@H](CC[C@@H](C)[C@H]2[C@@H](O)[C@@H](O)[C@@H]3[C@]2(C)CC[C@@H]2[C@@]4(C)CC[C@H](O)[C@H](O)[C@@H]4[C@@H](O)C[C@]23O)C(C)C)OC[C@H]1O[C@@H]1OC[C@H](O)[C@H](O)[C@H]1O [MONILOSIDE E] | 10 µg
7 | CO[C@@H]1[C@@H](O)[C@H](OCC[C@@H](/C=C/[C@@H](C)[C@H]2[C@@H](O)[C@@H](O)[C@@H]3[C@]2(C)CC[C@@H]2[C@@]4(C)CC[C@H](O)[C@H](O)[C@@H]4[C@@H](O)C[C@]23O)C(C)C)OC[C@H]1O[C@@H]1OC[C@H](O)[C@H](O)[C@H]1O [MONILOSIDE F] | 10 µg
8 | CO[C@@H]1[C@@H](O)[C@H](O[C@@H]2CO[C@@H](O[C@@H]3CO[C@@H](OCC[C@@H](CC[C@@H](C)[C@H]4[C@@H](O)[C@@H](O)[C@@H]5[C@]4(C)CC[C@@H]4[C@@]6(C)CC[C@H](O)[C@H](O)[C@@H]6[C@@H](O)C[C@]45O)C(C)C)[C@H](O)[C@H]3O)[C@H](O)[C@H]2OC)OC[C@H]1O [MONILOSIDE G] | 10 µg
9 | CO[C@@H]1[C@@H](O)[C@H](O[C@@H]2CO[C@@H](O[C@@H]3CO[C@@H](OCC[C@@H](CC[C@@H](C)[C@H]4[C@@H](O)[C@@H](O)[C@@H]5[C@]4(C)CC[C@@H]4[C@@]6(C)CC[C@H](O)[C@H](O)[C@@H]6[C@@H](O)C[C@]45O)C(C)C)[C@H](O)[C@H]3O)[C@H](O)[C@H]2O)OC[C@H]1O [MONILOSIDE I] | 1 µg
